Common to all, as to type: cell-based, human
Assay [1] deals with CD3-positive Jurkat cells. Description: Delivery assay, Z-RFP FACS, Jurkat cells. The settings on record: 1 nM, 10 nM, 100 nM; 30 minutes. As to the method:
For FIG. 30 Panel E, Foralumab-LL37 was made from Foralumab (SEQ ID NOs: 129 and 130) in a sortase-catalyzed reaction to GG-LL37 peptide (SEQ ID NO: 2), and purified on Protein A chromatography. For cell delivery assay, Foralumab/Foralumab-LL37 and equimolar number of Z-RFP were added to Jurkat cells at described final concentration (i.e, 1 nM, 10 nM, and 100 nM) and incubated for 30 minutes. The liquid suspension culture was gently spun in a microcentrifuge at 2000 rpm for 4 minutes, and the clear supernatant was removed, and the cell pellet was washed in PBS and resuspended in FACS buffer (1XPBS, 2% FBS, 1 mM EDTA, 0.02% sodium azide) for analysis by FACS (Texas Red channel).

For assay [2], the system named is T47D cells. Description: Anti-HER2 mAb delivery efficiency using LL37-derived peptide constructs. The note with it: peptide conjugated to anti-HER2 mAb light chain, 100 nM Ab, Z-GFP (PEP#6, 35-43) or Goat anti-human IgG-AlexaFluor 488 (PEP#6, 47-94) fluorescence microscopy. As to the method: (§1) LL37 and LL37-derived peptides were produced synthetically with two additional N-terminal glycine residues (e.g. as shown in SEQ ID NO:2 compared to SEQ ID NO: 1) to enable the sortase reaction. The LL37-derived peptides (PEP#35 to #43, SEQ ID NOs: 13-21) were all dissolved at 10 mg/ml in phosphate buffer saline (PBS) at room temperature, sterile-filtered, and stored at -20° C. freezer. PEP#48 (SEQ ID: 74), PEP#49 (SEQ ID No: 75), and PEP#60 (SEQ ID NO: 105) were dissolved in 20% (v/v) acetonitrile in PBS. PEP#47 (SEQ ID NO: 96), PEP#86 (SEQ ID NO: 78), PEP#98 (SEQ ID NO: 79), PEP#99 (SEQ ID NO: 80), PEP#102 (SEQ ID NO: 82), and PEP#104 (SEQ ID NO: 84) were dissolved in DMSO. PEP#50 (SEQ ID No: 76), PEP#51 (SEQ ID No: 97), PEP#55 (SEQ ID No: 77), PEP#58 (SEQ ID No: 103), PEP#59 (SEQ ID No: 104), PEP#61 (SEQ ID No: 106), PEP#62 (SEQ ID No: 107), PEP#63 (SEQ ID No: 108), PEP#64 (SEQ ID No: 109), PEP#66 (SEQ ID No: 110), and PEP#94 (SEQ ID No: 35) were all dissolved in PBS. […] The reaction was incubated inside a 37° C. incubator for 16 hours, and then EDTA (pH 7.5) was added to 10 mM in the reaction mixture to chelate calcium and stop the reaction.
Delivery assay: The following delivery assay method was used on the anti-HER2 mAbs conjugated to the PEP#6, #35, #36, #37, #38, #39, #40, #41, #42, and #43 described in Table 7. […] The plates were then removed from the incubator, and the culturing media was removed from the adherent cells. The adherent cells were washed gently with an equal volume of ice-cold PBS. Then, the PBS wash was replaced 250 µl of fresh PBS for fluorescence microscope imaging.
At the end of incubation, the adherent target cells were washed twice with ice-cold PBS, fixed with 2% (w/v) formaldehyde in PBS at room temperature for 15 minutes, and washed twice with PBS at room temperature. The fixed adherent target cells were then permeabilized with 0.05% (v/v) Tween-20 in PBS at room temperature for 15 minutes. The permeabilized cells were then incubated with 5% (v/v) FBS, 0.05% (v/v) Tween-20 in PBS at 37 degree Celsius incubator for 30 minutes. The secondary antibody, Goat anti-human IgG-AlexaFluor 488, was added to 5 ug/ml in 5% (v/v) FBS, 0.05% (v/v) Tween-20 in PBS, and incubated with the treated target cells at 37 degree Celsius incubator for 30 minutes. After incubation, the labelled cells were washed twice with PBS, and stored in storage buffer [5% (v/v) FBS in PBS] at 4 degree Celsius until fluorescence microscope imaging. The delivery of mAb and mAb-LL37-derived peptides were determined qualitatively by estimating the green fluorescence intensity emitted from the AlexFluor488-labelled secondary antibody bound to mAb or mAb-LL37-derived peptides.

Assay [3] concerns T47D cells. Description: Anti-HER2 mAb delivery efficiency using antimicrobial peptides. The settings on record: peptide conjugated to anti-HER2 mAb, 100 nM + 100 nM Z-GFP, 4 hours. As to the method: as §1
The plates were then removed from the incubator, and the culturing media was removed from the adherent cells. […] Then, the PBS wash was replaced 250 µl of fresh PBS for fluorescence microscope imaging.

Consider Foralumab-LL37, for which the “targeted delivery (in words)” value in assay [1] is “more efficient than anti-CD3e mAb (i.e., Foralumab) at targeted delivery”. As to “LLGDFFRKSKEKIGKEFKRIVQRIKDFLRNLVPRTES [PEP#6 (LL37), two N-terminal glycines added for conjugation]”, the Delivery efficiency result in assay [2] and in assay [3] was “+++ (Same as LL37)” throughout.

The values above are taken from patent US20230227547A1, “ANTIBODY-PAYLOAD CONJUGATES WITH ENHANCED DELIVERY DOMAIN AND USES THEREOF” (IPROGEN BIOTECH INC., priority 2019, published 2023).
